Laboratory results published in paper PMC7312733, “From Graphite to Laccase Biofunctionalized Few-Layer Graphene: A “One Pot” Approach Using a Chimeric Enzyme” (International Journal of Molecular Sciences, 2020).

Target: T1, POXA1b (Pleurotus ostreatus, UniProt O60199)
T1 construct: wild-type laccase secreted by Pichia pastoris; concentrated and dialysed supernatant, not further purified
T1 sequence (O60199 21-533): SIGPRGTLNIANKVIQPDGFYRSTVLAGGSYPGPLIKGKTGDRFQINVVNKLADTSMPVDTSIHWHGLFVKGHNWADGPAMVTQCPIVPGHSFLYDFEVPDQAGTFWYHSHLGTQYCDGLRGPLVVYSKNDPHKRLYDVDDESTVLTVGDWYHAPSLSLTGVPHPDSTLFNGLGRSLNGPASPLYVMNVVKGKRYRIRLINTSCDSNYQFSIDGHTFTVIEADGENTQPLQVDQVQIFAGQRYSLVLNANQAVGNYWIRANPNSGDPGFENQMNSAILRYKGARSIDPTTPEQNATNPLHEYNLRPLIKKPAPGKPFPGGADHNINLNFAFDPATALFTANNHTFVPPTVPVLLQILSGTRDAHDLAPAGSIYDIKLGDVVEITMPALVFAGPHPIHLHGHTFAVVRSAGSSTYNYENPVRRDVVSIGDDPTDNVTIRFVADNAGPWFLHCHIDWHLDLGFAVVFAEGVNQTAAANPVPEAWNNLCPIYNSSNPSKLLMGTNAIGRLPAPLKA
Assay: spectrophotometric oxidation assay at […] nm
Assay type: biochemical
Conditions: 2 mM ABTS, 0.1 M sodium citrate pH 3.0, room temperature

`CCn1c(=NN=c2sc3cc(S(=O)(=O)O)ccc3n2CC)sc2cc(S(=O)(=O)O)ccc21` [ABTS, 2,2′-azino-bis(3-ethylbenzothiazoline-6-sulphonic acid)] was tested, and the “spectrophotometric oxidation assay at 420 nm” value was “The laccase activity was assayed at room temperature, monitoring the oxidation of ABTS”.
